In BindingDB's records for doi:10.1021/bi701954p (University of Maryland Biotechnology Institute, 2008):
“And” between values parts separate entries of the source, which are not always exact repeats. Identical values can stand only once.

Target: T1, Oxaloacetate decarboxylase (Pseudomonas aeruginosa (strain ATCC 15692 / DSM 22644 / CIP 104116 / JCM 14847 / LMG 12228 / 1C / PRS 101 / PAO1), UniProt Q9HUU1)
T1 sequence (Q9HUU1 whole entry): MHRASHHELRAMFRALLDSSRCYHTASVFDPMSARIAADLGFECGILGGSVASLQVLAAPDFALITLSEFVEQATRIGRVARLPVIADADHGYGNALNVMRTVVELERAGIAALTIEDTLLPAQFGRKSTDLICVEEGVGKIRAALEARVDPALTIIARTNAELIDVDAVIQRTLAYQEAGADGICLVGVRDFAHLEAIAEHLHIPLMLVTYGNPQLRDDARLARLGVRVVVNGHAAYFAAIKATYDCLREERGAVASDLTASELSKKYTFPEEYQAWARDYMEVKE
Test: Inhibition Assay
Description: Competitive inhibition constant determined for PA4872 catalyzed oxaloacetate decarboxylation.

Compound	Ki
O=C(O)C(=O)O	0.043 mM
O=C(O)C(O)(O)C(F)(F)C(=O)O [3,3-Difluoroxaloacetate]	0.45 mM
O=C(O)C(=O)CP(=O)(O)O [Phosphonopyruvate]	3 mM
CC(=O)C(=O)O [Pyruvate]	7.2 mM

Next, values leading:

Ki	Compound
1.09 mM and 0.56 mM	CC(=O)CC(=O)C(=O)O [Acetopyruvate]
6.7 mM and 3.2 mM	CCCC(=O)C(=O)O [alpha-ketovalerate]
